In brackets after ≈: the same amount, converted by molar mass.
Experiments:
[1] = tested on: Twenty-eight-spotted Ladybeetle; assay: Contact test for killing Twenty-eight-spotted Ladybeetle; type: in vivo; details: Henosepilachna vigintioctopunctata, in Solanum lycopersicum, 48 h, read-out: LC50 (median lethal dose)
Protocol: Leaves of tomato were dipped in each emulsion of each active ingredient of the present invention or the reference for 10 seconds. The leaves were taken up and dired in air and put in a Petri dish. Ten of Twenty-eight-spotted Ladybeetles (second instar) were put in the Petri dish which was covered with a cover. The Petri dish was maintained in a constant temperature room at 25° C. for 48 hours and percent mortality was determined and median lethal dose (LC50) was calculated in Finny's graphic method.

Common cutworm = assay: Contact test for killing Common cutworm; type: in vivo, Spodoptcra litura; details: 48 h, read-out: LC50 (median lethal dose)
Protocol: Leaves of cabbage were dipped in each aqueous emulsion of each active ingredient of the compounds of the invention or the reference for 10 seconds. The leaves were taken up and dried in air and put in a Petri dish. Common cutworms (second instar) were put in the Petri dish which was covered with a cover having many holes. The Petri dish was maintained in a constant temperature room at 25° C. for 48 hours and each percent mortality was determined and median lethal dose (LC50) was calculated in Finny's graphic method.

green rice leafhopper = assay: Contact test for killing green rice leafhopper; type: in vivo; details: Nephotettix cincticeps, 48 h, read-out: LC50 (median lethal dose)
Protocol: Stems and leaves of a rice seedling were dipped in each emulsion of each active ingredient of the present invention or a reference compound for 10 seconds and were dried in air. The stems and leaves were covered with a glass cylinder. Adult green rice leafhoppers which are resistant to the conventional organic phosphorus type insecticide were released into the glass cylinder which was covered with a cover having holes and was maintained in a constant temperature room at 25° C. for 48 hours and each percent mortality was determined and median lethal dose (LC50) was calculated in Finny's graphic method.

Green peach aphid = assay: Test for killing Green peach aphid; type: in vivo, Myzue persicae; details: Myzus persicae, 48 h, read-out: LC50 (median lethal dose)
Protocol: Each emulsifiable concentrate of the compound of the present invention or the reference compound was diluted with water to a predetermined concentration. Green peach aphid were inoculated on leaves in a Petri dish having a diameter of 3 cm and 2 ml of each emulsion was sprayed and it was covered. The Petri dish was maintained in a constant temperature room at 25° C. for 48 hours and each percent of mortality was determined and median lethal dose (LC50) was calculated in Finny's graphic method.

Kanzawa spider mite = assay: Test for killing Kanzawa spider mite; type: in vivo; details: Tetranychus kanzawai, in Phaseolus vulgaris, 48 h, read-out: LC50 (median lethal dose)
From the text: Leaves of kidney bean was cut by a leaf-punch in a form of circle having a diameter of 1.5 cm. The leaf-discs were put on a wet filter paper on a polystyrene cup having a diameter of 7 cm. Ten of Kanzawa spider mites were inoculated on the leaf-discs in the cup. Half days after the inoculation, each solution prepared by diluting each emulsifiable concentrate of the present invention or each reference compound with a spreader (Nitten S 4,000 times manufactured by Nissan Chem.) at each predetermined concentration was sprayed by a rotary spray for 2 ml. per each cup.
Numbers of mortalities of mites were measured after 48 hours from the spraying and percent mortaliteis were calculated and median lethal dose (LC50) was calculated in Finny's graphic method.

CC1(C)[C@@H](C(=O)OC(C#N)c2ccc(F)c(Oc3ccccc3)n2)[C@@H]1c1ccc(Cl)cc1 (relative stereo) [Compound No. 3]
LC50 [1]: 0.26 µg/mL (≈ 0.577 µM) | LC50 (Common cutworm): 1.3 µg/mL (≈ 2.88 µM) | LC50 (green rice leafhopper): 0.7 µg/mL (≈ 1.55 µM)

CC(C)(C)c1ccc([C@H]2[C@H](C(=O)OC(C#N)c3ccc(F)c(Oc4ccccc4)n3)C2(C)C)cc1 (relative stereo) [Compound No. 4, Cyano(5-fluoro-6-phenoxy-2-pyridyl) methyl trans-2,2-dimethyl-3-(p-t-butylphenyl)cyclopropanecarboxylate]
LC50 (Green peach aphid): 4.6 µg/mL (≈ 9.73 µM) | LC50 (Common cutworm): 4 µg/mL (≈ 8.46 µM) | LC50 (green rice leafhopper): 1.3 µg/mL (≈ 2.75 µM) | LC50 (Kanzawa spider mite): 0.32 µg/mL (≈ 0.677 µM)

CC(C)C(C(=O)OC(C#N)c1ccc(F)c(Oc2ccccc2)n1)c1ccc(Cl)cc1 (stereo not drawn) [Compound No. 1, Cyano(5-fluoro-6-phenoxy-2-pyridyl) methyl α-isopropyl-p-chlorophenylacetate]
LC50 [1]: 0.05 µg/mL (≈ 0.114 µM) | LC50 (Common cutworm): 0.43 µg/mL (≈ 0.98 µM) | LC50 (green rice leafhopper): 0.26 µg/mL (≈ 0.592 µM) | LC50 (Kanzawa spider mite): 6.3 µg/mL (≈ 14.4 µM)

CC(C)C(C(=O)OC(C#N)c1ccc(F)c(Oc2ccccc2)n1)c1ccc(OC(F)F)cc1 (centres unmarked) [Compound No. 2]
LC50 [1]: 0.5 µg/mL (≈ 1.06 µM) | LC50 (Green peach aphid): 2.3 µg/mL (≈ 4.89 µM) | LC50 (Common cutworm): 3 µg/mL (≈ 6.38 µM) | LC50 (green rice leafhopper): 0.28 µg/mL (≈ 0.595 µM) | LC50 (Kanzawa spider mite): 12 µg/mL (≈ 25.5 µM)

CC1(C)C(C=C(Cl)Cl)C1C(=O)OC(C#N)c1ccc(F)c(Oc2ccccc2)n1 (centres unmarked) [Compound No. 5]
LC50 [1]: 0.03 µg/mL (≈ 0.0689 µM) | LC50 (Green peach aphid): 1.84 µg/mL (≈ 4.23 µM) | LC50 (Common cutworm): 0.31 µg/mL (≈ 0.712 µM) | LC50 (green rice leafhopper): 0.4 µg/mL (≈ 0.919 µM) | LC50 (Kanzawa spider mite): 5.4 µg/mL (≈ 12.4 µM)

CC1(C)[C@H](C(=O)OC(C#N)c2ccc(F)c(Oc3ccccc3)n2)[C@@H]1C=C(Br)Br (stereo partly drawn) [Compound No. 6, Cyano(5-fluoro-6-phenoxy-2-pyridyl) methyl (1R, cis)-2,2-dimethyl-3-(2,2-dibromovinyl)cyclopropane carboxylate]
LC50 [1]: 0.02 µg/mL (≈ 0.0382 µM) | LC50 (Common cutworm): 0.24 µg/mL (≈ 0.458 µM) | LC50 (green rice leafhopper): 0.31 µg/mL (≈ 0.591 µM)

CC(C)C(C(=O)OC(C#N)c1cccc(Oc2ccc(F)cc2)n1)c1ccc(Cl)cc1 (centres unmarked) [Reference Compd. A]
LC50 (Common cutworm): 3.1 µg/mL (≈ 7.06 µM) | LC50 (green rice leafhopper): 1.4 µg/mL (≈ 3.19 µM) | LC50 (Kanzawa spider mite): 100 µg/mL (≈ 228 µM)

CC(C)C(C(=O)OC(C#N)c1cccc(Oc2ccccc2)n1)c1ccc(Cl)cc1 (centres unmarked) [Reference Compd. B]
LC50 (Common cutworm): 1.7 µg/mL (≈ 4.04 µM) | LC50 (green rice leafhopper): 5 µg/mL (≈ 11.9 µM)

CC(C)C(C(=O)OC(C#N)c1cccc(Oc2ccc(F)cc2)n1)c1ccc(OC(F)F)cc1 (centres unmarked) [Reference Compd. C]
LC50 [1]: 21 µg/mL (≈ 44.6 µM) | LC50 (Common cutworm): 5 µg/mL (≈ 10.6 µM) | LC50 (green rice leafhopper): 76 µg/mL (≈ 162 µM) | LC50 (Kanzawa spider mite): > 100 µg/mL

CC(C)C(C(=O)OC(C#N)c1cccc(Oc2ccccc2)n1)c1ccc(OC(F)F)cc1 (centres unmarked) [Reference Compd. D]
LC50 [1]: 0.9 µg/mL (≈ 1.99 µM) | LC50 (Green peach aphid): 26 µg/mL (≈ 57.5 µM) | LC50 (Common cutworm): 9 µg/mL (≈ 19.9 µM) | LC50 (green rice leafhopper): 6 µg/mL (≈ 13.3 µM)

CC1(C)C(C(=O)OC(C#N)c2cccc(Oc3ccc(F)cc3)n2)C1c1ccc(Cl)cc1 (centres unmarked) [Reference Compd. E]
LC50 (Common cutworm): 13 µg/mL (≈ 28.8 µM) | LC50 (green rice leafhopper): 16 µg/mL (≈ 35.5 µM)

CC1(C)C(C(=O)OC(C#N)c2cccc(Oc3ccccc3)n2)C1c1ccc(Cl)cc1 (centres unmarked) [Reference Compd. F]
LC50 [1]: 2 µg/mL (≈ 4.62 µM) | LC50 (Common cutworm): 15 µg/mL (≈ 34.6 µM)

CC(C)(C)c1ccc(C2C(C(=O)OC(C#N)c3cccc(Oc4ccc(F)cc4)n3)C2(C)C)cc1 (centres unmarked) [Reference Compd. G]
LC50 (Common cutworm): 12 µg/mL (≈ 25.4 µM) | LC50 (green rice leafhopper): 32 µg/mL (≈ 67.7 µM) | LC50 (Kanzawa spider mite): 2 µg/mL (≈ 4.23 µM)

CCCCc1ccc(C2C(C(=O)OC(C#N)c3cccc(Oc4ccccc4)n3)C2(C)C)cc1 (centres unmarked) [Reference Compd. H]
LC50 (Green peach aphid): 12 µg/mL (≈ 26.4 µM) | LC50 (green rice leafhopper): 6.4 µg/mL (≈ 14.1 µM)

CC1(C)C(C=C(Cl)Cl)C1C(=O)OCc1cccc(Oc2ccccc2)n1 (centres unmarked) [Reference Compd. I]
LC50 (Green peach aphid): 34 µg/mL (≈ 86.7 µM) | LC50 (Common cutworm): 10 µg/mL (≈ 25.5 µM) | LC50 (green rice leafhopper): 3.7 µg/mL (≈ 9.43 µM) | LC50 (Kanzawa spider mite): > 100 µg/mL

Reference: patent publication US4504483A, “Fluorine substituted pyridine methyl esters and insecticidal and acaricidal compositions thereof” (Nissan Chemical Industries Ltd., priority 1981, dated 1985)
